Source: patent US9151761B2, “Predictive biomarker of survival in the treatment of renal cell carcinoma” (Amgen Inc., priority 2011, dated 2015)

System: advanced clear cell carcinoma of the kidney
Assay: Phase 2 study of AMG 386 plus sorafenib: progression free survival by baseline serum PLGF above vs below the median (28 pg/mL)
Assay type: in vivo, human
Details: sorafenib only, 400 mg PO BID (placebo AMG 386), FIG. 4
Description: FIGS. 1-4 are Kaplan-Meier plots showing progression free survival differences between subjects with patient PLGF concentrations above and below the median PLGF concentration parameter (28 pg/mL). 123 patients total with 43 patients administered AMG 386 at 10 mg/kg, 39 patients at 3 mg/kg, and 41 patients at 0 mg/kg. All patients were also dosed with 400 mg sorafenib orally, twice a day. […]
The number of patients to be enrolled was approximately 150. […] The primary outcome measured was PFS while the secondary outcome included objective response rate, duration of response, and change in continuous measures of tumor burden.
Renal cancer patient's circulating levels of protein placental growth factor (PLGF) was analyzed along with a number of other analytes to determine if it was predictive of how well they will respond after treatment with AMG 386 and sorafenib. […] The baseline patient PLGF concentration was analyzed to determine if it was informative of how well the patient would respond to the treatment regimens.
The patients PLGF concentrations were determined and tested for statistical association with progression free survival (PFS) time. […] Predictive significance was determined with a Cox proportional hazards model of PFS with the factors PLGF, cohort, and the interaction between PLGF and cohort. […]

## CNC(=O)c1cc(Oc2ccc(NC(=O)Nc3ccc(Cl)c(C(F)(F)F)c3)cc2)ccn1 [sorafenib]
41 patients (23 above, 18 below)
  Cox proportional hazard ratio (HR) of progression free survival, patient PLGF above vs below median: 0.83
41 patients
  difference in median survival, patient PLGF above vs below median: 1 days
